Measured values taken from US8946230B2, “Aryl- and heteroaryl- nitrogen-heterocyclic compounds as PDE10 inhibitors” (Amgen Inc., priority 2010, dated 2015).

Target: T1, PDE10 (UniProt Q8CA95)
T1 sequence (Q8CA95 1-790): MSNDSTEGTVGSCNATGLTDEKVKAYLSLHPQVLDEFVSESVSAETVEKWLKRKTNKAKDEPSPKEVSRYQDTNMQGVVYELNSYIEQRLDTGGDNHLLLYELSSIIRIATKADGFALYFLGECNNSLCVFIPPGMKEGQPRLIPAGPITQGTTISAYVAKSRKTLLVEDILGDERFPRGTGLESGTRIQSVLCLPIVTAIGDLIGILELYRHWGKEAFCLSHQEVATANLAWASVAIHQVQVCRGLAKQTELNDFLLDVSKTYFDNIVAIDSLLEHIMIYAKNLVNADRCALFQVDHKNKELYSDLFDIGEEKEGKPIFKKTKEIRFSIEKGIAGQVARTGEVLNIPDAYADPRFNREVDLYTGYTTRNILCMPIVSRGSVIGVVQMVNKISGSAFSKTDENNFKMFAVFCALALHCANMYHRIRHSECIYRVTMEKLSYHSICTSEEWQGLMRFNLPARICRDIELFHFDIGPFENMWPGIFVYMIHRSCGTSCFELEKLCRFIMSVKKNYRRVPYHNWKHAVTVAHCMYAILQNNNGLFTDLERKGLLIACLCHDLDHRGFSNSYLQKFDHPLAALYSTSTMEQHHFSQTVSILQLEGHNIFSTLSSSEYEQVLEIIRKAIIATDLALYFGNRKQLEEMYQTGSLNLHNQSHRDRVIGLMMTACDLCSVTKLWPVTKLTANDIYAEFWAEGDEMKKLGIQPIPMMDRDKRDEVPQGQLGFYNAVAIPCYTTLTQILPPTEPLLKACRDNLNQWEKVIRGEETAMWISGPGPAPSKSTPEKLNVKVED
Assay: PDE10 enzyme inhibition, IMAP TR-FRET assay (Example A: MPDE10A7 Enzyme Activity and Inhibition)
Format: biochemical
Details: Table 1A, Examples 11-56; read-out: PDE10 IC50
Protocol: MPDE10A7 Enzyme Activity and Inhibition Enzyme Activity. An IMAP TR-FRET assay was used to analyze the enzyme activity (Molecular Devices Corp., Sunnyvale Calif.). 5 μL of serial diluted PDE10A (BPS Bioscience, San Diego, Calif.) or tissue homogenate was incubated with equal volumes of diluted fluorescein labeled cAMP or cGMP for 60 min in 384-well polystyrene assay plates (Corning, Corning, N.Y.) at room temperature. After incubation, the reaction was stopped by adding 60 μL of diluted binding reagents and was incubated for 3 hours to overnight at room temperature. The plates were read on an Envision (Perkin Elmer, Waltham, Mass.) for time resolved fluorescence resonance energy transfer. The data were analyzed with GraphPad Prism (La Jolla, Calif.). Enzyme Inhibition. To check the inhibition profile, 5 μL of serial diluted compounds were incubated with 5 μL of diluted PDE10 enzyme (BPS Bioscience, San Diego, Calif.) or tissue homogenate in a 384-well polystyrene assay plate (Corning, Corning, N.Y.) for 30 min at room temperature. After incubation, 10 μL of diluted fluorescein labeled cAMP or cGMP substrate were added and incubated for 60 min at room temperature. The reaction was stopped by adding 60 μL of diluted binding reagents and plates were read on an Envision (Perkin Elmer, Waltham, Mass.) for time resolved fluorescence resonance energy transfer. The data were analyzed with GraphPad Prism (La Jolla, Calif.).

IC50: 0.499 µM
Structure (SMILES): COc1nccnc1N1CC(c2nc3cc(Cl)ccc3[nH]2)C1 [Example 45, 5-chloro-2-(1-(3-methoxypyrazin-2-yl)azetidin-3-yl)-1H-benzo[d]imidazole]
